Data on 33 molecules can be found in ChEMBL document CHEMBL1137176, “Structure-activity relationships of piperazinebenzylamines as potent and selective agonists of the human melanocortin-4 receptor” (Bioorg Med Chem Lett, 2004).

In assay [1] the target is T1, Melanocyte-stimulating hormone receptor (Homo sapiens, UniProt Q01726). Nature of the assay: Displacement of [125I]NDP-MSH from HEK293 cells expressing human melanocortin-1 receptor. It counts as cell-based. (In general: In a radioligand displacement assay an active substance lowers the binding of a labelled ligand.)
Target sequence in this assay (Q01726 whole entry): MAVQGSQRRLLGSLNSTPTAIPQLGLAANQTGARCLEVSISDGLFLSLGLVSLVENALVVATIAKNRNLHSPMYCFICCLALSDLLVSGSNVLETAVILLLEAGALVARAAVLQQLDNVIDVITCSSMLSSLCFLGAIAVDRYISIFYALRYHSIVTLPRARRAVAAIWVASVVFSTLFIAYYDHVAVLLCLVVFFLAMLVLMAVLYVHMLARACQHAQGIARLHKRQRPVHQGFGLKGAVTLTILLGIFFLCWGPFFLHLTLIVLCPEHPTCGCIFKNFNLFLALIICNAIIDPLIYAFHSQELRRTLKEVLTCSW
The next assay addresses Melanocortin receptor 3 (Homo sapiens, UniProt P41968). Put plainly: Displacement of [125I]NDP-MSH from HEK293 cells expressing human melanocortin-3 receptor. It counts as cell-based.
Assay [2] deals with T2, Melanocortin receptor 4 (Homo sapiens, UniProt P32245). Put plainly: Displacement of [125I]NDP-MSH from HEK293 cells expressing human melanocortin-4 receptor. It counts as cell-based.
T2 sequence (P32245 whole entry): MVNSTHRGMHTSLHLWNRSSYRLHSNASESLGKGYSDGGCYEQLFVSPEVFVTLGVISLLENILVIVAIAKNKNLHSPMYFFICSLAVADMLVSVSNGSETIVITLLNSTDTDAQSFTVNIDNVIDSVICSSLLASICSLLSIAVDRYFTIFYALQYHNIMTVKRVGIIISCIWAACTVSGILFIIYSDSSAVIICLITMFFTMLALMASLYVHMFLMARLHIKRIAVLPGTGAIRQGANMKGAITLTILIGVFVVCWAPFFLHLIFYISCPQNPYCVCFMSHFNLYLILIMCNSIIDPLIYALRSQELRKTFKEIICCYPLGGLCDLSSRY
A further assay deals with Melanocortin receptor 5 (Homo sapiens, UniProt P33032). Nature of the assay: Displacement of [125I]NDP-MSH from HEK293 cells expressing human melanocortin-5 receptor. It counts as cell-based.
Chain of Melanocortin receptor 5 (P33032 whole entry): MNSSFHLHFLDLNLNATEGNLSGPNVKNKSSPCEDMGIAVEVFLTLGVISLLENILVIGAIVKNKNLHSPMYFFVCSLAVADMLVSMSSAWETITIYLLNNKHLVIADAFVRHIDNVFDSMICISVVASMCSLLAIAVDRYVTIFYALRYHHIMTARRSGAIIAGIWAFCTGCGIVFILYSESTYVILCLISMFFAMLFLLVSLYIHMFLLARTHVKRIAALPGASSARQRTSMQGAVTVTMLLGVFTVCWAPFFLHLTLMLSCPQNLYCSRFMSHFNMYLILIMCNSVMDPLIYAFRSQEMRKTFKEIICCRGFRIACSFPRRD
Assay [3] addresses T2, Melanocortin receptor 4. Nature of the assay: Effective concentration against cAMP release in CHO cells expressing human melanocortin-4 receptor. It counts as functional, cell-based.
The target of assay [4] is T1, Melanocyte-stimulating hormone receptor. Put plainly: Displacement of [125I]NDP-MSH from human melanocortin-1 receptor expressed in HEK 293 cells at 10 uM. It counts as cell-based. Particulars: HEK293.
Target sequence in this assay (Q01726 whole entry, looked up): as the sequence (Q01726 whole entry) above
Assay [5] addresses T2, Melanocortin receptor 4. Put plainly: Effective concentration for cAMP release in HEK293 cells expressing human melanocortin-4 receptor. The class given is functional, cell-based.
For assay [6], the target named is T2, Melanocortin receptor 4. Nature of the assay: Percent intrinsic activity of alpha-MSH-stimulated cAMP level in HEK293 cells expressing human melanocortin-4 receptor. The class given is functional, cell-based. In general terms: cAMP levels reflect the balance of adenylyl cyclase and phosphodiesterase activity.

Chain of Melanocortin receptor 3 (P41968 whole entry): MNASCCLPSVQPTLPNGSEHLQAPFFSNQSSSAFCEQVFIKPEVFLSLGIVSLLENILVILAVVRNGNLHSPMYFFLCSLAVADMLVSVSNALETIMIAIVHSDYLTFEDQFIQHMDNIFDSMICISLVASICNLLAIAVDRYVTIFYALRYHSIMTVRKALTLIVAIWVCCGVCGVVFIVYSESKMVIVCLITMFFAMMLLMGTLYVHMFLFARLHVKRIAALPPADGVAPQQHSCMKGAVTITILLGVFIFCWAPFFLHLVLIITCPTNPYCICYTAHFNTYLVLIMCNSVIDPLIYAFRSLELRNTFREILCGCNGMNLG

Take `CC(N[C@H]1CCNC1)c1ccccc1N1CCN(C(=O)[C@@H](Cc2ccc(Cl)cc2)NC(=O)[C@H]2Cc3ccccc3CN2)CC1` (stereo partly drawn): the Ki (usually a dissociation constant, usually derived from enzyme kinetics or from competition with a known ligand) in assay [1] worked out at 2100 nM; at Melanocortin receptor 3 it was 3600 nM; at Melanocortin receptor 4 [2] it was 13 nM; at Melanocortin receptor 5, 590 nM. Moreover, the EC50 (usually the concentration needed to bring the measured effect to its halfway point) on Melanocortin receptor 4 [3] turned out to be 12 nM.
With `O=C(N[C@H](Cc1ccc(Cl)cc1)C(=O)N1CCN(c2ccccc2CNCCc2cccs2)CC1)[C@H]1Cc2ccccc2CN1`, the Ki was 6000 nM in assay [1], 1800 nM on Melanocortin receptor 3 and 240 nM at Melanocortin receptor 5.
Consider `COCCN(C)Cc1ccccc1N1CCN(C(=O)[C@@H](Cc2ccc(Cl)cc2)NC(=O)[C@H]2Cc3ccccc3CN2)CC1`, for which affinity on Melanocortin receptor 4 [2] was put at a Ki of 49 nM. Moreover, the response at Melanocortin receptor 4 [3] was half-maximal at 51 nM (EC50).
For `O=C(N[C@H](Cc1ccc(Cl)cc1)C(=O)N1CCN(c2ccccc2CNCC2CCNCC2)CC1)[C@H]1Cc2ccccc2CN1`, on Melanocortin receptor 4 [2], the Ki came to 102 nM. This molecule gave an EC50 at Melanocortin receptor 4 [3] of 208 nM.
In turn, `CN(CCO)Cc1ccccc1N1CCN(C(=O)[C@@H](Cc2ccc(Cl)cc2)NC(=O)[C@H]2Cc3ccccc3CN2)CC1` showed a Ki at Melanocortin receptor 4 [2] of 55 nM. Moreover, the midpoint of the response on Melanocortin receptor 4 [3], the EC50, lay at 40 nM.
`CC(NCc1ccco1)c1ccccc1N1CCN(C(=O)[C@@H](Cc2ccc(Cl)cc2)NC(=O)[C@H]2Cc3ccccc3CN2)CC1` (stereo partly drawn) yielded a Ki at Melanocortin receptor 4 [2] of 12 nM. The same molecule gave an EC50 at Melanocortin receptor 4 [3] of 138 nM.
Taken in the same sequence, the figures for `O=C(N[C@H](Cc1ccc(Cl)cc1)C(=O)N1CCN(c2ccccc2CNC2CCCC2)CC1)[C@H]1Cc2ccccc2CN1` were 66 nM and 164 nM.
In the same order, the values of `CN(CCc1ccccn1)Cc1ccccc1N1CCN(C(=O)[C@@H](Cc2ccc(Cl)cc2)NC(=O)[C@H]2Cc3ccccc3CN2)CC1` are 35 nM and 190 nM.
Take `O=C(N[C@H](Cc1ccc(Cl)cc1)C(=O)N1CCN(c2ccccc2Cn2cncn2)CC1)[C@H]1Cc2ccccc2CN1`: the Ki worked out at 270 nM on Melanocortin receptor 4 [2] and 1200 nM at Melanocortin receptor 5. The molecule further registered an EC50 at Melanocortin receptor 4 [3] of 110 nM. In assay [4], the inhibition (as a rule, the share of the control response that was lost under treatment) is 36%.
On Melanocortin receptor 4 [2], `O=C(N[C@H](Cc1ccc(Cl)cc1)C(=O)N1CCN(c2ccccc2CNC2CC2)CC1)[C@H]1Cc2ccccc2CN1` gave a Ki of 90 nM. The molecule further displayed an EC50 on Melanocortin receptor 4 [3] of 253 nM.
In the same order, the values of `O=C(N[C@H](Cc1ccc(Cl)cc1)C(=O)N1CCN(c2ccccc2CNCc2ccco2)CC1)[C@H]1Cc2ccccc2CN1` are 53 nM and 274 nM.
Taken in the same sequence, the figures for `O=C(N[C@H](Cc1ccc(Cl)cc1)C(=O)N1CCN(c2ccccc2CNCCc2ccc(F)cc2)CC1)[C@H]1Cc2ccccc2CN1` were 81 nM and 487 nM.
In the same order, the values of `CC(NCCc1cccs1)c1ccccc1N1CCN(C(=O)[C@@H](Cc2ccc(Cl)cc2)NC(=O)[C@H]2Cc3ccccc3CN2)CC1` (stereo partly drawn) are 24 nM and 577 nM.
Regarding `C[C@H]1CN(Cc2ccccc2N2CCN(C(=O)[C@@H](Cc3ccc(Cl)cc3)NC(=O)[C@H]3Cc4ccccc4CN3)CC2)[C@@H](C)CN1`, the Ki on Melanocortin receptor 4 [2] was 19 nM. The molecule further registered an EC50 at Melanocortin receptor 4 [3] of 18 nM.
As for `CC(NCCc1ccccc1F)c1ccccc1N1CCN(C(=O)[C@@H](Cc2ccc(Cl)cc2)NC(=O)[C@H]2Cc3ccccc3CN2)CC1` (stereo partly drawn), the Ki at Melanocortin receptor 4 [2] worked out at 33 nM. Further, a half-maximal response on Melanocortin receptor 4 [3] (EC50) required 2060 nM.
Take `O=C(N[C@H](Cc1ccc(Cl)cc1)C(=O)N1CCN(c2ccccc2CNCCc2ccccc2F)CC1)[C@H]1Cc2ccccc2CN1`: the values for the Ki at Melanocortin receptor 3, at Melanocortin receptor 4 [2] and at Melanocortin receptor 5 were 2300 nM, 27 nM and 260 nM, respectively. Moreover, the EC50 on Melanocortin receptor 4 [3] turned out to be 910 nM.
As for `CC(NC1CC1)c1ccccc1N1CCN(C(=O)[C@@H](Cc2ccc(Cl)cc2)NC(=O)[C@H]2Cc3ccccc3CN2)CC1` (stereo partly drawn), the Ki on Melanocortin receptor 4 [2] was 23 nM. In addition, at Melanocortin receptor 4 [3], the EC50 amounted to 174 nM.
Taken in the same sequence, the figures for `CN(Cc1cccnc1)Cc1ccccc1N1CCN(C(=O)[C@@H](Cc2ccc(Cl)cc2)NC(=O)[C@H]2Cc3ccccc3CN2)CC1` were 77 nM and 94 nM.
For the molecule `CC(NC1CCCNC1)c1ccccc1N1CCN(C(=O)[C@@H](Cc2ccc(Cl)cc2)NC(=O)[C@H]2Cc3ccccc3CN2)CC1` (stereo partly drawn), the Ki in assay [1] was 1500 nM; on Melanocortin receptor 3, 2000 nM; at Melanocortin receptor 4 [2], 6.4 nM; on Melanocortin receptor 5, 270 nM. In addition, the EC50 is 4.7 nM on Melanocortin receptor 4 [5] and 3.8 nM at Melanocortin receptor 4 [3]. This molecule showed an IA on Melanocortin receptor 4 [6] of 100%.
With `NCc1ccccc1N1CCN(C(=O)[C@@H](Cc2ccc(Cl)cc2)NC(=O)[C@H]2Cc3ccccc3CN2)CC1`, the Ki at Melanocortin receptor 4 [2] amounted to 380 nM; on Melanocortin receptor 5, 2300 nM. This molecule displayed an EC50 at Melanocortin receptor 4 [3] of 274 nM.
As for `O=C(N[C@H](Cc1ccc(Cl)cc1)C(=O)N1CCN(c2ccccc2CN2CCN(c3ccccc3)CC2)CC1)[C@H]1Cc2ccccc2CN1`, on Melanocortin receptor 4 [2], the Ki was 145 nM. A half-maximal effect at Melanocortin receptor 4 [3] (EC50) was put at 300 nM.
In the same order, the values of `O=C(O)CCNCc1ccccc1N1CCN(C(=O)[C@@H](Cc2ccc(Cl)cc2)NC(=O)[C@H]2Cc3ccccc3CN2)CC1` are 490 nM and 90 nM.
In the same order, the values of `CC(NC1CCCC1)c1ccccc1N1CCN(C(=O)[C@@H](Cc2ccc(Cl)cc2)NC(=O)[C@H]2Cc3ccccc3CN2)CC1` (stereo partly drawn) are 11 nM and 72 nM.
For the molecule `CCCC(=O)C1(C2CCCCC2)CCN(C(=O)[C@@H](Cc2ccc(Cl)cc2)NC(=O)[C@@H](Cc2ncc[nH]2)NC(=O)c2ccccc2)CC1`, on Melanocortin receptor 4 [3], the EC50 amounted to 2.9 nM.
At Melanocortin receptor 4 [2], `CC(N[C@H]1CCCCC1N)c1ccccc1N1CCN(C(=O)[C@@H](Cc2ccc(Cl)cc2)NC(=O)[C@H]2Cc3ccccc3CN2)CC1` (stereo partly drawn) registered a Ki of 13 nM. This molecule gave an EC50 on Melanocortin receptor 4 [3] of 15 nM.
In the case of `CCN(CC)Cc1ccccc1N1CCN(C(=O)[C@@H](Cc2ccc(Cl)cc2)NC(=O)[C@H]2Cc3ccccc3CN2)CC1`, the Ki at Melanocortin receptor 4 [2] is 52 nM. The molecule also had an EC50 on Melanocortin receptor 4 [3] of 240 nM.
`O=C(N[C@H](Cc1ccc(Cl)cc1)C(=O)N1CCC(Cn2cncn2)(C2CCCCC2)CC1)[C@H]1Cc2ccccc2CN1` yielded a Ki at Melanocortin receptor 5 of 860 nM.
As to `O=C(N[C@H](Cc1ccc(Cl)cc1)C(=O)N1CCN(c2ccccc2CN2CCC(N3CCCC3)CC2)CC1)[C@H]1Cc2ccccc2CN1`, affinity on Melanocortin receptor 4 [2] was put at a Ki of 24 nM. This molecule also yielded an EC50 on Melanocortin receptor 4 [3] of 146 nM.
Taken in the same sequence, the figures for `O=C(N[C@H](Cc1ccc(Cl)cc1)C(=O)N1CCN(c2ccccc2CNCCCO)CC1)[C@H]1Cc2ccccc2CN1` were 120 nM and 36 nM.
In the same order, the values of `CC(NC1CCC(N)CC1)c1ccccc1N1CCN(C(=O)[C@@H](Cc2ccc(Cl)cc2)NC(=O)[C@H]2Cc3ccccc3CN2)CC1` (stereo partly drawn) are 25 nM and 34 nM.
In the same order, the values of `O=C(N[C@H](Cc1ccc(Cl)cc1)C(=O)N1CCN(c2ccccc2CNCCc2cccc(F)c2)CC1)[C@H]1Cc2ccccc2CN1` are 14 nM and 460 nM.
For the molecule `CN(Cc1ccccc1)Cc1ccccc1N1CCN(C(=O)[C@@H](Cc2ccc(Cl)cc2)NC(=O)[C@H]2Cc3ccccc3CN2)CC1`, the Ki on Melanocortin receptor 4 [2] turned out to be 84 nM. In addition, the EC50 on Melanocortin receptor 4 [3] is 632 nM.
In turn, `NCCNCc1ccccc1N1CCN(C(=O)[C@@H](Cc2ccc(Cl)cc2)NC(=O)[C@H]2Cc3ccccc3CN2)CC1` showed a Ki on Melanocortin receptor 4 [2] of 127 nM. At Melanocortin receptor 4 [3], a half-maximal response (EC50) required 91 nM.
